Counter-ions that a name gives are not always drawn. Like-named read-outs stand apart in the source and are kept apart here.
What was measured:
[1] = system: HIV-1NL4-3 Nanoluc-sec virus; assay: Anti-HIV assay: multicycle viral replication in MT4 cells, Nano-Glo luciferase readout; type: cell-based
Protocol: (§1) All of the synthetic derivatives were evaluated for anti-HIV activity by determining the inhibitory effects on virus replication in MT4 lymphocytes infected by HIV-1NL4-3 Nanoluc-sec virus. Cytotoxic activity tests were also carried out on MT4 cells.
In vitro activity was determined by a previously described HIV-1 infection assay. Briefly, a 96-well microtiter plate was used to set up the screening assay using MT4 cells infected by HIV-1NL4-3 Nanoluc-sec virus in the presence of various concentrations of derivatives. The viral replication thus can be monitored by measuring the luciferase activity using the Promega Nano-Glo Luciferase Assay System.

[2] = CellTiter-Glo Luminescent Cytotoxicity Assay; type: cell-based; details: human, MT-4 cells (MT4 lymphocytes)
Protocol: as §1
(§2) The cytotoxicity of the synthesized derivatives was determined using the CellTiter-Glo® Luminescent Cytotoxicity Assay (Promega, Madison, WI, USA). MT-4 cells were cultured in the presence of various concentrations of the compounds for 3 days. The percentage of viable cells was measured by following the protocol provided by the manufacturer. The CC50 was derived using the Quest Graph™ IC50 Calculator (https://www.aatbio.com/tools/ic50-calculator, accessed on 7 October 2021).

MT4 cells = assay: CellTiter-Glo Luminescent Cytotoxicity Assay; type: cell-based; details: MT-4 cells, 3 days
Protocol: as §1, §2

[3] = system: HIV-1NL4-3 Nanoluc-sec virus; details: cited from earlier work
[4] = Human immunodeficiency virus 1, MT4, read-out: PEC50, actual value converted from EC50, 3D-QSAR dataset
[5] = Human immunodeficiency virus 1, MT4, 3D-QSAR dataset, actual values, entries matching the derivatives tested in this paper (Table 1)
[6] = 3D-QSAR dataset, actual values, ref activity data reported from our laboratory

Compound	EC50 [1, 4] [µM]	EC50 [3, 6] [nM]	further results
CC(=O)O[C@H]1[C@@H](OC(C)=O)[C@@]2(C)C3CCC4C(C)(C)[C@@H](OC(=O)CC(C)(C)C(=O)OCc5ccccc5)CC[C@@]45C[C@@]35CC[C@@]23CO[C@@]2(C(C)(C)O)CC[C@](C)(O2)[C@@H]13 (stereo partly drawn) (as salt: succinate) [3b, (20S,24S)-15β,16β-Diacetoxy-18,24;20,24-diepoxy-9,19-cyclolanostane-3β,25-diol-3-O-4′-(benzyloxy) carbonyl-3′,3′-dimethylsuccinate]			melting point: 188 to 190 °C
CC(C)(CC(=O)O[C@H]1CC[C@]23C[C@]24CC[C@]25CO[C@@]6(C(C)(C)O)CC[C@](C)(O6)[C@H]2[C@@H](O)[C@@H](O)[C@@]5(C)C4CCC3C1(C)C)C(=O)O (stereo partly drawn) [3 ^a]	0.12		
CC(=O)O[C@H]1[C@@H](OC(C)=O)[C@@]2(C)C3CCC4C(C)(C)[C@@H](OC(=O)CC(C)(C)C(=O)OCc5ccccc5)CC[C@@]45C[C@@]35CC[C@@]23CO[C@@]2(C(C)(C)O)CC[C@](C)(O2)[C@@H]13 (stereo partly drawn) [3b, (20S,24S)-15β,16β-Diacetoxy-18,24;20,24-diepoxy-9,19-cyclolanostane-3β,25-diol-3-O-4′-(benzyloxy) carbonyl-3′,3′-dimethylsuccinate]			EC50 ([1]; Human immunodeficiency virus 1, NL43, MT4, read-out: EC50 (μM) NL4-3, MT4 cells infected by HIV-1NL4-3 Nanoluc-sec virus, mean +/− SD of 3 tests): 0.28 µM; CC50 at 3 days [2]: > 20 µM
Cc1cn([C@H]2C[C@H](N=[N+]=[N-])[C@@H](CO)O2)c(=O)[nH]c1=O [AZT, reference compound]			EC50 ([1]; MT4 cells infected by HIV-1NL4-3 Nanoluc-sec virus, mean +/− SD of 3 tests, read-out: EC50 (μM) NL4-3): 0.024 ± 0.0045 µM; CC50 (MT4 cells): > 0.3 µM
CC(=O)OC1C2C3(C)CCC(C(C)(C)O)(OCC24CCC25CC26CCC(OC(=O)CC(C)(C)C(=O)O)C(C)(C)C6CCC5C4(C)C1OC(C)=O)O3 [DSC, (20S,24S)-15ꞵ,16ꞵ-diacetoxy-18,24; 20,24-diepoxy-9,19-cyclolanostane-3ꞵ,25-diol 3-O-3′,3′-dimethylsuccinate]			EC50 ([3]; anti-HIV, previous work): 25 nM
CC(=O)OC1C2C3(C)CCC(C(C)(C)O)(OCC24CCC25CC26CCC(OC(=O)CC(C)(C)C(=O)OCc2ccccc2)C(C)(C)C6CCC5C4(C)C1OC(C)=O)O3 (stereo not drawn) [compound 4]	0.285		EC50 [1, 5]: 0.285 µM
CC(=O)OC1C2C3(C)CCC(C(C)(C)O)(OCC24CCC25CC26CCC(OC(=O)CC(C)C(=O)O)C(C)(C)C6CCC5C4(C)C1OC(C)=O)O3 (stereo not drawn) [compound 6]	1.11	1110	
CC(C)(CC(=O)OC1CCC23CC24CCC25COC6(C(C)(C)O)CCC(C)(O6)C2C(O)C(O)C5(C)C4CCC3C1(C)C)C(=O)OCc1ccccc1 (stereo not drawn) [compound 7]	1.52		EC50 [1, 5]: 1.52 µM
CC(=O)OC1C2C3(C)CCC(C(C)(C)O)(OCC24CCC25CC26CCC(OC(=O)CC2(CC(=O)O)CCCC2)C(C)(C)C6CCC5C4(C)C1OC(C)=O)O3 (stereo not drawn) [compound 8]	1.59	1590	
CC(C)(CC(=O)OC1CCC23CC24CCC25COC6(C(C)(C)O)CCC(C)(O6)C2C(O)C(O)C5(C)C4CCC3C1(C)C)C(=O)O (stereo not drawn) [compound 9]	1.79		EC50 [1, 5]: 1.79 µM
CC(=O)OC1C2C3(C)CCC(C(C)(C)O)(OCC24CCC25CC26CCC(OC2OCC(O)C(O)C2O)C(C)(C)C6CCC5C4(C)C1OC(C)=O)O3 (stereo not drawn) [compound 10]	2.32	2320	
CC(=O)OC1C2C3(C)CCC(C(C)(C)O)(OCC24CCC25CC26CCC(OC(C)=O)C(C)(C)C6CCC5C4(C)C1OC(C)=O)O3 (stereo not drawn) [compound 11]	2.44	2440	
CC(=O)OC1C(O)C2C3(C)CCC(C(C)(C)O)(OCC24CCC25CC26CCC(OC2OCC(O)C(O)C2O)C(C)(C)C6CCC5C14C)O3 (stereo not drawn) [compound 13]	4.85	4850	
CC12CCC(C(C)(C)O)(OCC34CCC56CC57CCC(OC5OCC(O)C(O)C5O)C(C)(C)C7CCC6C3(C)C(O)C(O)C14)O2 (stereo not drawn) [compound 14]	7.62	7620	
beesioside I [compound 1]		25	PEC50 ([1]; actual value converted from EC50, 3D-QSAR dataset): 7.602

Reference: paper PMC9867151, “Anti-HIV Potential of Beesioside I Derivatives as Maturation Inhibitors: Synthesis, 3D-QSAR, Molecular Docking and Molecular Dynamics Simulations” (International Journal of Molecular Sciences, 2023)
